According to patent US20220033406A1, “C[…] AS ANTI-VIRALS” (priority 2018, published 2022):

Legend:
[1] = tested on: VSV-G pseudotyped HIV NL4-3; test: microbe, parasite or virus in culture; format: cell-based; conditions: Human immunodeficiency virus 1, NL43, 72 h, read-out: HIV EC50 (uM)
[2] = tested on: HBV; test: Inhibition of HBV in HepG2.117 cells (anti-HBV activity, qPCR); format: cell-based; conditions: Hepatitis B virus, HepG2.117, 96 h, HBV viral DNA copy numbers in supernatant by qPCR
[3] = Table 4 phosphoramidate prodrugs

| SMILES | EC50 [1] [µM] | EC50 ([2]; Table 2 nucleosides) [µM] | EC50 [2, 3] [µM] |
| --- | --- | --- | --- |
| C=C1[C@@H](n2cc(C)c(=O)[nH]c2=O)C[C@H](O)[C@@]1(C#N)CO [Example 15, (1S,3S,5S)-5-Hydroxy-1-(hydroxymethyl)-3-(5-methyl-2,4-dioxo-3,4-dihydropyrimidin-1(2H)-yl)-2-methylenecyclopentane-1-carbonitrile] | > 33.3 | > 10 |  |
| C=C1[C@H](CO)[C@@H](O)C[C@@H]1n1ccc2c(N)ncnc21 [Example 9, (1S,2R,4S)-4-(4-Amino-7H-pyrrolo[2,3-d]pyrimidin-7-yl)-2-(hydroxymethyl)-3-methylenecyclopentan-1-ol] | > 33.3 | 7.41 |  |
| C=C1[C@H](n2cnc3c(N)ncnc32)C[C@H](O)[C@]1(F)CO [Example 7, (1S,2R,4R)-4-(6-Amino-9H-purin-9-yl)-2-fluoro-2-(hydroxymethyl)-3-methylenecyclopentan-1-ol] | > 33.3 | > 10 |  |
| C=C1[C@@H](n2cnc3c(=O)[nH]c(N)nc32)C[C@H](O)[C@@]1(C#N)CO [Example 18, (1S,3S,5S)-3-(2-Amino-6-oxo-1,6-dihydro-9H-purin-9-yl)-5-hydroxy-1-(hydroxymethyl)-2-methylenecyclopentane-1-carbonitrile] | 0.12 | 0.0466 |  |
| C#C[C@]1(COP(=O)(N[C@@H](C)C(=O)OC(C)C)Oc2ccccc2)C(=C)[C@@H](n2cnc3c(N)ncnc32)C[C@@H]1O (stereo partly drawn) [Example 38, Isopropyl ((((1R,3S,5S)-3-(6-amino-9H-purin-9-yl)-1-ethynyl-5-hydroxy-2-methylenecyclopentyl)methoxy)(phenoxy)phosphoryl)-L-alaninate] | 0.0506 |  | 2.37 |
| C=C1[C@@H](n2ccc(N)nc2=O)C[C@H](O)[C@@]1(C#N)CO [Example 16, (1S,3S,5S)-3-(4-Amino-2-oxopyrimidin-1(2H)-yl)-5-hydroxy-1-(hydroxymethyl)-2-methylenecyclopentane-1-carbonitrile] | 5.83 | > 10 |  |
| C=C1[C@@H](n2cnc3c(N)ncnc32)C[C@H](O)[C@@]1(CF)COP(=O)(N[C@@H](C)C(=O)OC(C)C)Oc1ccccc1 (stereo partly drawn) [Example 40, Isopropyl ((((1S,3S,5S)-3-(6-amino-9H-purin-9-yl)-1-(fluoromethyl)-5-hydroxy-2-methylenecyclopentyl)methoxy)(phenoxy)phosphoryl)-L-alaninate] | 0.144 |  | 0.0137 |
| C=C1[C@@H](n2cnc3c(N)ncnc32)C[C@H](O)[C@@]1(C#N)CO [Example 17, (1S,3S,5S)-3-(6-Amino-9H-purin-9-yl)-5-hydroxy-1-(hydroxymethyl)-2-methylenecyclopentane-1-carbonitrile] | 2.21 | > 10 |  |
| C=C1[C@@H](n2cnc3c(=O)[nH]c(N)nc32)C[C@H](O)[C@@]1(C#N)COP(=O)(N[C@@H](C)C(=O)OC(C)C)Oc1ccccc1 (single isomer, unassigned) [Example 44, Isopropyl ((S*)-(((1S,3S,5S)-3-(2-amino-6-oxo-1,6-dihydro-9H-purin-9-yl)-1-cyano-5-hydroxy-2-methylenecyclopentyl)methoxy)(phenoxy)phosphoryl)-L-alaninate] | 2.29 |  | 0.459 |
| C=C1[C@@H](n2cnc3c(N)ncnc32)C[C@H](O)[C@@]1(F)CO [Example 6, (1S,2S,4S)-4-(6-Amino-9H-purin-9-yl)-2-fluoro-2-(hydroxymethyl)-3-methylenecyclopentan-1-ol] | 2.68 | 0.0617 |  |
| C=C1[C@H](n2cnc3c(=O)[nH]c(N)nc32)C[C@H](O)[C@]1(F)CO [Example 5, 2-Amino-9-((1R,3R,4S)-3-fluoro-4-hydroxy-3-(hydroxymethyl)-2-methylenecyclopentyl)-1,9-dihydro-6H-purin-6-one] | > 33.3 | 2.47 |  |
| C=C1[C@@H](n2ccc3c(N)ncnc32)C[C@H](O)[C@@]1(F)CO [Example 1, (1S,2S,4S)-4-(4-Amino-7H-pyrrolo[2,3-d]pyrimidin-7-yl)-2-fluoro-2-(hydroxymethyl)-3-methylenecyclopentan-1-ol] |  | 0.0109 |  |
